Nine molecules from ChEMBL document CHEMBL1149484, “Comparison of the binding of 3-fluoromethyl-7-sulfonyl-1,2,3,4-tetrahydroisoquinolines with their isosteric sulfonamides to the active site of phenylethanolamine N-methyltransferase” (J Med Chem, 2006) can be followed below.

Structures are written as SMILES.

Usually Ki stands for the dissociation constant of the complex between target and ligand, obtained from inhibition or displacement. The low end stands for tighter binding, the high end for weaker binding.

Tested on in one assay: not listed separately
In words: Selectivity for human PNMT over rat Adrenergic alpha-2 receptor.
As to `c1ccc2c(c1)CCNC2` [1,2,3,4-TETRAHYDROISOQUINOLINE], the Selectivity ratio came to 0.06.

For the next assay, the target named is T1, Phenylethanolamine N-methyltransferase (Homo sapiens, UniProt P11086).
T1 sequence (P11086 whole entry): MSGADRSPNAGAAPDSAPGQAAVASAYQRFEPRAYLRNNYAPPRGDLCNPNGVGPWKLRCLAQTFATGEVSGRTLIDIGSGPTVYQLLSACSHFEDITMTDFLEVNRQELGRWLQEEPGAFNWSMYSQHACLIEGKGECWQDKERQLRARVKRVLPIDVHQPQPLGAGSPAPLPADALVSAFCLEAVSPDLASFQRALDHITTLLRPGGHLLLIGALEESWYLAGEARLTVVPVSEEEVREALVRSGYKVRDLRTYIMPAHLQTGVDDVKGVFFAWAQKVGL
In words: Binding affinity to human PNMT expressed in Escherichia coli by radiochemical assay.
Molecule `c1ccc2c(c1)CCNC2` [1,2,3,4-TETRAHYDROISOQUINOLINE] registered a Ki of 5.8 µM.

The next assay has as its target T2, Adrenergic receptor alpha-2 (Rattus norvegicus, UniProt P22086+P19328+P22909).
T2 sequence (P22086 whole entry): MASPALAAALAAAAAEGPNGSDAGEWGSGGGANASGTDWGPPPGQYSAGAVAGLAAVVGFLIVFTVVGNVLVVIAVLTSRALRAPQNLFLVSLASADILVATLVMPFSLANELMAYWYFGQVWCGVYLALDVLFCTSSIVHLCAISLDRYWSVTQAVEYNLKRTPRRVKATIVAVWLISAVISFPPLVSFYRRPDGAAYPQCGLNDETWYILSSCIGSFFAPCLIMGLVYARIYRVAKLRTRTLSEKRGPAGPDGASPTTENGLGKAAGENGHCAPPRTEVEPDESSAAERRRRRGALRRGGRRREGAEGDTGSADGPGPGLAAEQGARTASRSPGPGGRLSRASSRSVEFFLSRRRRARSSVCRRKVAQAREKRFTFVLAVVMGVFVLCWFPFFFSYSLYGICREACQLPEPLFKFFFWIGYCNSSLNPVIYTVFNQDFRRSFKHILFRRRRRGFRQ
T2 sequence (P19328 whole entry): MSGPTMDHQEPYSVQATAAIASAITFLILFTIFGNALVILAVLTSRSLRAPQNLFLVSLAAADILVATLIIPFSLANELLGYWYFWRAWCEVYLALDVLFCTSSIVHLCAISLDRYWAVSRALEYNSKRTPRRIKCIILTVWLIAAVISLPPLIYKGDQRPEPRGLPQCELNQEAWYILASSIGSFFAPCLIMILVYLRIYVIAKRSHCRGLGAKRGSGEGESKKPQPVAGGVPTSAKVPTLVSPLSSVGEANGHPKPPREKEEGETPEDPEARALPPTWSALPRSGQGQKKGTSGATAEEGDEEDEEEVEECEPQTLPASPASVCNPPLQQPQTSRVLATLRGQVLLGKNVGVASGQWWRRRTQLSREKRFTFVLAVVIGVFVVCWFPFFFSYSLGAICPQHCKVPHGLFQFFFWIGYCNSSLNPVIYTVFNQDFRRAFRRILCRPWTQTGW
T2 sequence (P22909 whole entry): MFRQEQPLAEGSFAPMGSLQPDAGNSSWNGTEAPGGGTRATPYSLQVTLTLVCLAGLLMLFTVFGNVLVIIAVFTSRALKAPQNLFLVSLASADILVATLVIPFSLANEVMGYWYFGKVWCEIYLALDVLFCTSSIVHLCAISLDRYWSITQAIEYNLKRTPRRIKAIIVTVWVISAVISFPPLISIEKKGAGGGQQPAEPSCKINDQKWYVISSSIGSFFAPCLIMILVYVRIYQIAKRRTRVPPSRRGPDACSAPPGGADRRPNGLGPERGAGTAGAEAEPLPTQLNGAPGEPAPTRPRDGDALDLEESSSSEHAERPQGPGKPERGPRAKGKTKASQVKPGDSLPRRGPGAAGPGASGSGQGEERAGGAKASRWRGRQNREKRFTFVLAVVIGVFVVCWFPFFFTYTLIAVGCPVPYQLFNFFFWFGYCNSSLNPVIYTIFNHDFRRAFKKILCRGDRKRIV
Put plainly: Displacement of [3H]clonidine from Sprague-Dawley rat cortex adrenergic alpha 2 receptor. Background: Loss of bound radioactivity is the signal in a displacement assay; it reports binding, not function.
On to `CCS(=O)(=O)c1ccc2c(c1)CNC(CF)C2` (stereo not given), for which the Ki was determined as 1100 µM.

In the case of `CCCS(=O)(=O)c1ccc2c(c1)CNC(CF)C2` (stereo not given), the Ki is 690 µM.

`O=S(=O)(CCCC(F)(F)F)c1ccc2c(c1)CNC(CF)C2` (stereo not given): the Ki was above 1000 µM. `CCCCS(=O)(=O)c1ccc2c(c1)CNC(CF)C2` (stereo not given) returned a Ki of 540 µM. Same read-out and setting: with `COCCCS(=O)(=O)c1ccc2c(c1)CNC(CF)C2` (stereo not given) the figure was 1200 µM. Same read-out and setting: with `O=S(=O)(Cc1ccc(Cl)cc1)c1ccc2c(c1)CNC(CF)C2` (stereo not given) the figure was above 1000 µM; with `O=S(=O)(CC(F)(F)F)c1ccc2c(c1)CNC(CF)C2` (stereo not given), 740 µM; with `O=S(=O)(CCC(F)(F)F)c1ccc2c(c1)CNC(CF)C2` (stereo not given), above 1000 µM.
